In patent US20240408125A1, “COMPOSITION COMPRISING POLYGALATENOSIDE AS ACTIVE INGREDIENT FOR PREVENTION OR TREATMENT OF CANCER” (HOSEO UNIVERSITY ACADEMIC COOPERATION FOUNDATION, priority 2021, published 2024):

Assays:
Assay type in all cases: cell-based, Mouse
NOX2 protein = NOX2 protein expression by Western blot with densitometry relative to β-actin; settings: B16-F10 cells, FIG. 2
Experimental: (§1) B16-F10 melanoma cells were cultured under conditions of 36.5° C. and 5% CO2 using a Dulbecco's modified Eagle's medium supplemented with 10% (v/v) fetal bovine serum and 1% (v/v) penicillin-streptomycin.
B16-F10 melanoma cells were cultured for 12 hours, and then treated with polygalatenoside A at concentrations of 0, 0.1, 0.3, 1, 3, and 10 μM for 24 hours, respectively. Thereafter, the cells were washed twice with PBS, and collected, and proteins were recovered by lysing the cells with a radioimmunoprecipitation assay (RIPA) buffer containing phenylmethylsulfonyl fluoride (PMSF). 50 μg of proteins was separated by sodium dodecyl sulfate poly-acrylamide gel electrophoresis (SDS-PAGE) and then transferred to a polyvinylidene fluoride (PVDF) membrane. The membrane was treated with a tris-buffered saline (TBS; pH 7.6) containing 5% (w/v) skim milk, 0.05% (v/v) tween-20, and 0.01% (w/v) sodium azide at 25° C. for 1 hour. The membrane was washed three times with TBST (TBS containing 0.05% (v/v) tween-20) and treated with an anti-NOX2 primary antibody and a horse radish peroxidase (HRP)-conjugated secondary antibody. The protein levels were visualized using enhanced chemiluminescence (ECL) and an X-ray film. The expression level of NOX2 protein compared to β-actin was shown in FIG. 2 through a densitometry of ImageJ software.

B16-F10 melanoma cells [1] = assay: WST8 cell viability assay; settings: 3 μM for 48 hours, WST8, absorbance at 450 nm, FIG. 3
Experimental: as §1
B16-F10 melanoma cells were cultured in a 96-well cell culture plate for 12 hours, and then treated with polygalatenoside A at concentrations of 0, 0.1, 0.3, 1, 3, and 10 μM for 48 hours, respectively. The medium was treated with a WST8 Cell Viability Assay Reagent to a concentration of 10% (v/v) and cultured for 2 hours. Thereafter, cell viability was confirmed by measuring absorbance at 450 nm using a microplate reader, and the results were shown in FIG. 3.

B16-F10 melanoma cells [2] = assay: Viable cell number by trypan blue staining and hemocytometer; settings: FIG. 4
Experimental: as §1
Next, in order to measure changes in cell number, B16-F10 cells were cultured for 12 hours, and then treated with polygalatenoside A at concentrations of 0, 0.1, 0.3, 1, 3, and 10 μM for 72 hours, respectively. The cells were collected every 24 hours, stained with trypan blue, and the number of viable cells was measured using a hemocytometer, and the results were shown in FIG. 4.

For `O=C(OCC1OC(OC2COC(CO)[C@@H](O)C2O)C(O)C(O)C1O)c1ccccc1` (some centres unmarked) [polygalatenoside A, Polygalatenoside A], the “expression of NOX2 compared to untreated control group (fold)” value (NOX2 protein; 3 μM for 24 hours) was “about 1.4 times”, the “expression of NOX2 compared to untreated control group” value (NOX2 protein; 0.1-10 μM for 24 hours) was “increased” and the “cell viability (cell death effect)” value (B16-F10 melanoma cells [1]) was “cell death effect was exhibited”. For the same molecule, the “growth inhibition effect (number of viable cells)” value (B16-F10 melanoma cells [2]; 3 μM up to 72 hours, compared with the other concentrations) was “most significantly shown” and the “growth of melanoma cells (number of viable cells)” value (B16-F10 melanoma cells [2]; 0.1-10 μM up to 72 hours, counted every 24 hours) was “inhibited”.
